Source: US20230330067A1, “NOVEL THIOHYDANTOIN DERIVATIVES AND USES THEREOF” (CELROS BIOTECH, priority 2020, published 2023)

Columns and labels:
[1] = tested on: MPTP-induced Parkinson's disease; test: MPTP-induced Parkinson's disease model mice; type: in vivo, C57BL/6 male mice
Experimental: In order to evaluate the effect of the compound of Example 1 against MPTP (1-methyl-4-phenyl-1,2,3,6-tetrahydropyridine hydrochloride; Sigma-Aldrich) induced Parkinson's disease, twenty-six C57BL/6 male mice (9 weeks old) were randomly divided into three groups. • (1) saline+vehicle • (2) MPTP+vehicle • (3) MPTP+compound of Example 1 (10 mg/kg) Mice were injected intraperitoneally with MPTP (15 mg/kg) 4 times at 2 hour intervals, whereas control mice were treated with the same volume of saline. The compound of Example 1 was dissolved in a vehicle containing 4% DMSO (dimethyl sulfoxide, Sigma-Aldrich) and 96% corn oil (Sigma-Aldrich). Mice received daily intraperitoneal injections of the compound of Example 1 at 10 mg/kg for 8 days from 1 day prior to MPTP injection. Dopaminergic neurons were detected using an anti-tyrosine hydroxylase antibody (1:2000-4000, abcaom) and microglia were measured using an anti-Ibal antibody (1:1000, Wako). Biotinylated goat anti-rabbit antibody (VECTOR, BA-1000) was used as secondary antibody, and ABC solution (VECTOR, BA-1000) was employed. The immunoreactive regions were then incubated with 3-3′ diaminobenzidine (DAB, Dako) to change the color to brown. Seven days post MPTP injection (one day post the final injection of the compound of Example 1), mice were sacrificed and brains thereof were recovered. The brain was sectioned coronally (thickness of 30 μm) using a cryostat (CM1850, Leica), and stored in anti-freeze solution (30% sucrose, 1% polyvinylpyrrolidone and 30% ethylene glycol in 1X PBS) at -20° C. Six coronal sections from substantia nigra (bregma −2.80 mm to −3.80 mm) and three coronal sections (bregma +0.98 mm to +0.50 mm) were collected every 150 μm, stained, and analyzed using ImagePro plus 7.0 software. Mice were subjected to the rotarod test 3 times (1 day before MPTP injection, Day 3 and Day 6 post MPTP injection) based on 3 trials/day.

[2] = tested on: laser-induced choroidal neovascularization (CNV); test: Laser-induced choroidal neovascularization (CNV) mice; type: in vivo, female C57BL/6 mice; conditions: 5 μl, 4 times/day
Experimental: Choroidal neovascularization (CNV) was induced in 7-week-old female C57BL/6 mice by laser photocoagulation (200 mW, 80 ms duration, 4 spots). Mice were divided into 5 groups. (1) Naive Group (2) Vehicle Group (Laser and Vehicle Injection) (3) Aflibercept 1 μg group (laser and intravitreal injection of 1 μg aflibercept) (4) Aflibercept 20 μg group (laser and intravitreal injection of 20 μg aflibercept) (5) Example 1 compound group (laser and 5 μl of Example 1 compound (1 mg/ml), eye drops). One day post laser injury, mice were intravitreally injected with 1 μl of aflibercept (1 mg/ml or 20 mg/ml). 5 μl of the compound of Example 1 (1 mg/ml) was instilled into the eye 4 times a day for 12 days starting from the day of laser injury. […] Visual function was evaluated by […]. Apoptotic cells are detected by TUNEL staining. VEGF and GFAP were detected by immunofluorescence staining.

Huα-Syn transgenic mice = test: Huα-Syn transgenic mice; type: in vivo; conditions: 10 mg/kg intraperitoneal daily for 3 months
Experimental: In order to evaluate the effect of the compound of Example 1 on Huα-Syn transgenic mice, 6-month-old transgenic mice or wild-type mice were divided into 4 groups. • (1) wild type (WT)+vehicle • (2) transgenic (TG)+vehicle • (3) wild type+compound of Example 1 (10 mg/kg) • (4) transgenic+compound of Example 1 (10 mg/kg)
The compound of Example 1 was dissolved in a vehicle containing 4% DMSO (dimethyl sulfoxide, Sigma-Aldrich) and 96% corn oil (Sigma-Aldrich). Mice were intraperitoneally injected with the compound of Example 1 daily at 10 mg/kg daily for 3 months.
The maximum force of the mouse forelimb was recorded with a grip strength meter. The grip strength of vehicle-treated transgenic mice was reduced compared to wild-type mice of the same age.

CN1C(=S)N(C2CCCCC2)C(=O)/C1=C\c1ccc(N(C)CCO)cc1 [Example 1, (E)-3-cyclohexyl-5-(4-((2-hydroxyethyl)(methyl)amino)benzylidene)-1-methyl-2-thioxoimidazolidin-4-one]
dopaminergic neuron protection (Th+ cells in substantia nigra, Th+ fiber density in striatum) ([1]; 10 mg/kg intraperitoneal daily for 8 days, FIG. 4): protected dopaminergic neurons
pathology of microglia (Iba1+ counts in substantia nigra and striatum) ([1]; 10 mg/kg intraperitoneal daily for 8 days, FIG. 5): improved the pathology of microglia
motor function (rotarod test, retention time on the rod) ([1]; 10 mg/kg intraperitoneal daily, Day 3 and Day 6 post MPTP injection, FIG. 6): improved motor function
choroidal neovascularization vascular leakage (fundus fluorescein angiography) ([2]; eye drop 1 mg/ml, for 12 days, efficacy similar to intravitreal 20 μg aflibercept, FIG. 15): significantly reduced choroidal neovascularization vascular leakage
postsynaptic function (b-wave amplitude) ([2]; eye drops 1 mg/ml, Day 13 after injury, similar to intravitreal 20 μg aflibercept, FIG. 16): improved the b-wave amplitude
activation of Muller cells and astrocytes (GFAP immunostaining) ([2]; eye drops 1 mg/ml, Day 13 post CNV, similar to intravitreal 20 μg aflibercept, FIG. 20): significantly improved activation of Muller cells and astrocytes
vascular endothelial growth factor (VEGF) expression ([2]; eye drops 1 mg/ml, anti-VEGF immunofluorescence, similar to intravitreal 20 μg aflibercept, FIG. 19): dramatically reduced VEGF expression
cell death (TUNEL-positive cells) ([2]; eye drops 1 mg/ml, similar to intravitreal 20 μg aflibercept, FIG. 18): dramatically reduced TUNEL-positive cells
CNV lesion size (hematoxylin and eosin staining) ([2]; eye drops 1 mg/ml, versus vehicle group, FIG. 17): significantly smaller
amount of the phosphor α-synuclein in the hippocampus (HP CA1, HP CA2) (Huα-Syn transgenic mice; compared to vehicle-treated transgenic mice, FIG. 7): reduced the amount of the phosphor α-synuclein
astrocyte pathology (GFAP immunopositive astrocytes) in the prefrontal cortex (Pfcx) (Huα-Syn transgenic mice; FIG. 8): reduced astrocytes in Pfcx
microglia pathology (Iba1 immuno-positive microglia) in hippocampus (HP CA1) (Huα-Syn transgenic mice; FIG. 9): decrease in the number of microglial cells in HP CA1
neuromuscular function (forelimb grip strength) (Huα-Syn transgenic mice; FIG. 10): improved the grip strength
